Data on seven compounds can be found in US10004701B2, “Methods and compositions for treating infection” (UNIVERSITY OF ROCHESTER, priority 2012, dated 2018).

Holding throughout (test): AK assay 384-well format, Prestwick library screening
One assay deals with E. faecium. The assay is classed as cell-based, Enterococcus faecium. The conditions noted are these: 50 μM final drug concentration; for fold induction at 50 µM: Enterococcus faecium, 3 h.
Assay [1] concerns S. aureus strain USA300-0114. The assay is classed as cell-based, Staphylococcus aureus. The settings on record: 50 μM final drug concentration; for fold induction at 50 µM: Staphylococcus aureus, USA300, 3 h.
The next assay relates to K. pneumoniae. The assay is classed as cell-based, Klebsiella pneumoniae. The conditions noted are these: 50 μM final drug concentration; for fold induction at 50 µM: Klebsiella pneumoniae, 3 h.
The next assay deals with E. cloacae. The assay is classed as cell-based, Enterobacter cloacae. The conditions noted are these: 50 μM final drug concentration; for fold induction at 50 µM: Enterobacter cloacae, 3 h.
For assay [2], the system named is A. baumannii strain 98-37-09. Format: cell-based, Acinetobacter baumannii. The conditions noted are these: 50 μM final drug concentration; for fold induction at 50 µM: Acinetobacter baumannii, 983709, 3 h.
For the next assay, the system named is P. aeruginosa. Format: cell-based, Pseudomonas aeruginosa. The conditions noted are these: 50 μM final drug concentration; for fold induction at 50 µM: Pseudomonas aeruginosa, 3 h.
For the next assay, the system named is E. coli. The assay is classed as cell-based, Escherichia coli. The conditions noted are these: 50 μM final drug concentration; for fold induction at 50 µM: Escherichia coli, 3 h.
Setting [3] is: planktonic, cutoff for positive-scoring molecules 3-fold increase.

Structures are written as SMILES. Structures can show the parent of a compound that is named as a salt. Where two headings read alike, the source gives them in different places.

As to `CNCCC(Oc1ccc(C(F)(F)F)cc1)c1ccccc1` (stereo not shown) [Fluoxetine hydrochloride], the fold induction at 50 µM with E. faecium (planktonic E. faecium, cutoff for positive-scoring molecules 3-fold increase, read-out: AK-based Prestwick Library Screening Results, E. faecium (increase in extracellular AK activity)) was determined as 0.9; in assay [1] (planktonic S. aureus, cutoff for positive-scoring molecules 3-fold increase, read-out: AK-based Prestwick Library Screening Results, S. aureus (increase in extracellular AK activity)), 1.1; in the assay on K. pneumoniae (planktonic K. pneumoniae, cutoff for positive-scoring molecules 3-fold increase, read-out: AK-based Prestwick Library Screening Results, K. pneumoniae (increase in extracellular AK activity)) it was 0.8; in the assay with E. cloacae (planktonic E. cloacae, cutoff for positive-scoring molecules 3-fold increase, read-out: AK-based Prestwick Library Screening Results, E. cloacae (increase in extracellular AK activity)), 1.1; in assay [2] (planktonic A. baumannii, cutoff for positive-scoring molecules 3-fold increase, read-out: AK-based Prestwick Library Screening Results, A. baumannii (increase in extracellular AK activity)) it was 1; in the assay with P. aeruginosa (planktonic P. aeruginosa, cutoff for positive-scoring molecules 3-fold increase, read-out: AK-based Prestwick Library Screening Results, P. aeruginosa (increase in extracellular AK activity)), 0.9. Also, in the assay with E. coli (planktonic E. coli, cutoff for positive-scoring molecules 3-fold increase, read-out: AK-based Prestwick Library Screening Results, E. coli (increase in extracellular AK activity)), the fold induction at 50 µM was 1.

For `OCCN1CCN(CCCN2c3ccccc3Sc3ccc(C(F)(F)F)cc32)CC1` [Fluphenazine dihydrochloride], the fold induction at 50 µM with E. faecium (planktonic E. faecium, 384-well, cutoff for positive-scoring molecules 3-fold increase, read-out: AK-based Prestwick Library Screening Results: E. faecium (increase in extracellular AK activity)) was found to be 1.1; in assay [1] (planktonic S. aureus, 384-well, cutoff for positive-scoring molecules 3-fold increase, read-out: AK-based Prestwick Library Screening Results: S. aureus (increase in extracellular AK activity)), 1; in the assay on K. pneumoniae (planktonic K. pneumoniae, 384-well, cutoff for positive-scoring molecules 3-fold increase, read-out: AK-based Prestwick Library Screening Results: K. pneumoniae (increase in extracellular AK activity)), 1.5; in the assay on E. cloacae (planktonic E. cloacae, 384-well, cutoff for positive-scoring molecules 3-fold increase, read-out: AK-based Prestwick Library Screening Results: E. cloacae (increase in extracellular AK activity)), 1.6; in assay [2] (planktonic A. baumannii, 384-well, cutoff for positive-scoring molecules 3-fold increase, read-out: AK-based Prestwick Library Screening Results: A. baumannii (increase in extracellular AK activity)) it was 1.6; in the assay with P. aeruginosa (planktonic P. aeruginosa, 384-well, cutoff for positive-scoring molecules 3-fold increase, read-out: AK-based Prestwick Library Screening Results: P. aeruginosa (increase in extracellular AK activity)), 1.1. For the same compound, in the assay on E. coli (planktonic E. coli, 384-well, cutoff for positive-scoring molecules 3-fold increase, read-out: AK-based Prestwick Library Screening Results: E. coli (increase in extracellular AK activity)), the fold induction at 50 µM stood at 1.3.

For `CC1(C)O[C@@H]2C[C@H]3[C@@H]4C[C@H](F)C5=CC(=O)CC[C@]5(C)[C@H]4[C@@H](O)C[C@]3(C)[C@]2(C(=O)CO)O1` [Flurandrenolide], the fold induction at 50 µM was found to be 0.8 in the assay on E. faecium (planktonic, cutoff for positive 3-fold increase, read-out: AK-based Prestwick Library Screening Results, E. faecium (fold increase in extracellular AK activity)); 0.4 in assay [1] (planktonic, cutoff for positive 3-fold increase, read-out: AK-based Prestwick Library Screening Results, S. aureus (fold increase in extracellular AK activity)); 0.5 in the assay on K. pneumoniae (planktonic, cutoff for positive 3-fold increase, read-out: AK-based Prestwick Library Screening Results, K. pneumoniae (fold increase in extracellular AK activity)); 0.3 in the assay on E. cloacae (planktonic, cutoff for positive 3-fold increase, read-out: AK-based Prestwick Library Screening Results, E. cloacae (fold increase in extracellular AK activity)); 0.5 in assay [2] (planktonic, cutoff for positive 3-fold increase, read-out: AK-based Prestwick Library Screening Results, A. baumannii (fold increase in extracellular AK activity)); 0.4 in the assay with P. aeruginosa (planktonic, cutoff for positive 3-fold increase, read-out: AK-based Prestwick Library Screening Results, P. aeruginosa (fold increase in extracellular AK activity)). Moreover, the fold induction at 50 µM with E. coli (planktonic, cutoff for positive 3-fold increase, read-out: AK-based Prestwick Library Screening Results, E. coli (fold increase in extracellular AK activity)) was found to be 0.5.

On to `CC(C(=O)O)c1ccc(-c2ccccc2)c(F)c1` (stereo not shown) [Flurbiprofen], for which the fold induction at 50 µM in the assay with E. faecium (planktonic, cutoff for positive-scoring molecules 3-fold increase, read-out: AK-based Prestwick Library Screening Results, E. faecium (fold increase in extracellular AK activity)) was 0.9; in assay [1] (planktonic, cutoff for positive-scoring molecules 3-fold increase, read-out: AK-based Prestwick Library Screening Results, S. aureus (fold increase in extracellular AK activity)) it was 0.6; in the assay with K. pneumoniae (planktonic, cutoff for positive-scoring molecules 3-fold increase, read-out: AK-based Prestwick Library Screening Results, K. pneumoniae (fold increase in extracellular AK activity)) it was 0.7; with E. cloacae (planktonic, cutoff for positive-scoring molecules 3-fold increase, read-out: AK-based Prestwick Library Screening Results, E. cloacae (fold increase in extracellular AK activity)), 1.6; in assay [2] (planktonic, cutoff for positive-scoring molecules 3-fold increase, read-out: AK-based Prestwick Library Screening Results, A. baumannii (fold increase in extracellular AK activity)) it was 0.9; in the assay with P. aeruginosa (planktonic, cutoff for positive-scoring molecules 3-fold increase, read-out: AK-based Prestwick Library Screening Results, P. aeruginosa (fold increase in extracellular AK activity)) it was 0.8. Moreover, the fold induction at 50 µM in the assay on E. coli (planktonic, cutoff for positive-scoring molecules 3-fold increase, read-out: AK-based Prestwick Library Screening Results, E. coli (fold increase in extracellular AK activity)) worked out at 0.8.

For the compound `O=C1NCN(c2ccccc2)C12CCN(CCCC(c1ccc(F)cc1)c1ccc(F)cc1)CC2` [Fluspirilen], the “AK-based Prestwick Library Screening Results, E. faecium (fold increase in extracellular AK activity)” value in the assay with E. faecium (setting [3]) came to 1.3. For the same compound, in assay [1] (setting [3]), the “AK-based Prestwick Library Screening Results, S. aureus (fold increase in extracellular AK activity)” value is given as 1.4. Besides, the “AK-based Prestwick Library Screening Results, K. pneumoniae (fold increase in extracellular AK activity)” value in the assay on K. pneumoniae (setting [3]) is 1.1. In addition, the “AK-based Prestwick Library Screening Results, E. cloacae (fold increase in extracellular AK activity)” value with E. cloacae (setting [3]) is listed as 1.0. The “AK-based Prestwick Library Screening Results, A. baumannii (fold increase in extracellular AK activity)” value in assay [2] (setting [3]) is 6.6. Besides, the “AK-based Prestwick Library Screening Results, P. aeruginosa (fold increase in extracellular AK activity)” value in the assay on P. aeruginosa (setting [3]) came out at 0.8. Besides, the “AK-based Prestwick Library Screening Results, E. coli (fold increase in extracellular AK activity)” value in the assay on E. coli (setting [3]) turned out to be 1.3.

`CC(C)C(=O)Nc1ccc([N+](=O)[O-])c(C(F)(F)F)c1` [Flutamide]: the fold induction at 50 µM was found to be 1 with E. faecium (384-well format, […], read-out: AK-based Prestwick Library Screening Results, E. faecium (increase in extracellular AK activity)); 0.4 in assay [1] (384-well format, […], read-out: AK-based Prestwick Library Screening Results, S. aureus (increase in extracellular AK activity)); 0.6 in the assay with K. pneumoniae (384-well format, […], read-out: AK-based Prestwick Library Screening Results, K. pneumoniae (increase in extracellular AK activity)); 0.7 in the assay on E. cloacae (384-well format, […], read-out: AK-based Prestwick Library Screening Results, E. cloacae (increase in extracellular AK activity)); 0.7 in assay [2] (384-well format, […], read-out: AK-based Prestwick Library Screening Results, A. baumannii (increase in extracellular AK activity)); 0.8 in the assay with P. aeruginosa (384-well format, […], read-out: AK-based Prestwick Library Screening Results, P. aeruginosa (increase in extracellular AK activity)). In the assay with E. coli (384-well format, […], read-out: AK-based Prestwick Library Screening Results, E. coli (increase in extracellular AK activity)), the fold induction at 50 µM was 0.7.

Regarding `CCC(=O)O[C@]1(C(=O)SCF)[C@H](C)C[C@H]2[C@@H]3C[C@H](F)C4=CC(=O)C=C[C@]4(C)[C@@]3(F)[C@@H](O)C[C@@]21C` [Fluticasone propionate], the fold induction at 50 µM amounted to 0.9 with E. faecium (planktonic E. faecium, positive cutoff 3-fold increase, read-out: AK-based Prestwick library screening result, E. faecium (fold increase in extracellular AK activity)); 0.7 in assay [1] (planktonic S. aureus, positive cutoff 3-fold increase, read-out: AK-based Prestwick library screening result, S. aureus (fold increase in extracellular AK activity)); 0.7 in the assay on K. pneumoniae (planktonic K. pneumoniae, positive cutoff 3-fold increase, read-out: AK-based Prestwick library screening result, K. pneumoniae (fold increase in extracellular AK activity)); 1.5 in the assay on E. cloacae (planktonic E. cloacae, positive cutoff 3-fold increase, read-out: AK-based Prestwick library screening result, E. cloacae (fold increase in extracellular AK activity)); 0.8 in assay [2] (planktonic A. baumannii, positive cutoff 3-fold increase, read-out: AK-based Prestwick library screening result, A. baumannii (fold increase in extracellular AK activity)); 0.8 in the assay with P. aeruginosa (planktonic P. aeruginosa, positive cutoff 3-fold increase, read-out: AK-based Prestwick library screening result, P. aeruginosa (fold increase in extracellular AK activity)). Further, the fold induction at 50 µM in the assay on E. coli (planktonic E. coli, positive cutoff 3-fold increase, read-out: AK-based Prestwick library screening result, E. coli (fold increase in extracellular AK activity)) turned out to be 0.8.
